Columns and labels:
[1] = test system: U2OS cells stably expressing HaloTag®-histone H2B fusion protein; experiment: Loading experiments using ligands 65HTL and 91HTL (JF552-HaloTag® ligand chase); format: cell-based; details: 200 nM, 0-4 h
Procedure: U2OS cells (ATCC) and U2OS cells stably expressing an integrated HaloTag®-histone H2B fusion protein (U2OS·H2B·HaloTag®) were cultured in Dulbecco's modified Eagle medium (DMEM, phenol red-free; Life Technologies) supplemented with 10% (v/v) fetal bovine serum (FBS, Life Technologies), 1 mM GlutaMAX (Life Technologies) and maintained at 37° C. in a humidified 5% (v/v) CO2 environment. These cell lines undergo regular mycoplasma testing by the Janelia Cell Culture Facility. For mitochondrial imaging using the HaloTag® system, U2OS cells were transiently transfected using nucleofection (Lonza) with a plasmid constitutively expressing a HaloTag®-TOMM20 fusion protein, which is located on the outer mitochondrial membrane. […]
For loading curve experiments, U2OS·H2B·HaloTag® stable cells were incubated with 200 nM 65HTL and 91HTL for 0-4 h at 37° C., washed 3× with dye-free media then chased with 200 nM JF552-HaloTag® ligand 15 for 30 min at 37° C., washed 3× with dye-free media and fixed with 4% paraformaldehyde in 0.1 M phosphate buffer, pH 7.4 for 15 min at 37° C. […] Fluorescence was quantified as the integrated density of nuclear signals from confocal image stack projections analyzed in FIJI;^82 n=100 nuclear signals per compound.

[2] = target: T1, HaloTag® protein (Rhodococcus rhodochrous, UniProt P0A3G2, A155T/A167V/A172T/A224E/C128F/C176G/D78G/E160K/E257K/H272N/K175M/K195N/L47V/L88M/N227D/P291S/S2A/S58T/T264A/Y273L/Y87F); experiment: Absorption increase of ligands on binding HaloTag® protein; format: biochemical
T1 construct: 6xHis; made in house; host or cells: bacterial expression (pRSET-A vector, Invitrogen)
Procedure: The bacterial expression vector pRSET-A (Invitrogen) was used to recombinantly express HaloTag® (HT7; Promega).^7 The soluble 6×His-Tagged HaloTag® protein was affinity purified by immobilized metal affinity chromatography (IMAC) on a 5^−mL Fast Flow HiTrap Sepharose 6 column (Cytiva) with a 0-200 mM imidazole elution gradient using an ÄKTA Avant Protein Purification System (Cytiva).
HaloTag® protein was used as a […] solution in 1× TBS. Absorption measurements were performed in 1.4^−mL semi-micro quartz cuvettes. A […] solution of HaloTag® ligand 65HTL or 91HTL was prepared in 10 mM HEPES, pH 7.3 containing 0.1 mg mL-1 CHAPS. An aliquot of HaloTag® protein (2 equiv, […] [HaloTag®]) was added. To examine chromogenicty (FIG. 5B, left panel), the resulting mixture was incubated until a consistent absorption signal/spectrum was observed (<60 min for 65HTL); an equivalent volume of 1× TBS blank was added to separate “−HT” samples in place of enzyme to record the ligand-only absorption. Spectra are averages (n=2). To compare rates of HaloTag® labeling (FIG. 5B, right panel) absorption at λabs (645 nm for 65HTL, 621 nm for 91HTL) was recorded at regular intervals (0.1 min, 0-5 min; 1 min, 5-120 min; 5 min, 2-24 h) immediately following addition of HaloTag® protein.

[3] = test system: ScAMPI (SNAP-tag®-Epac1-HaloTag®) expressed in U2OS cells; experiment: cAMP FLIM-FRET sensor ScAMPI (fluorescence lifetime imaging); format: cell-based
Description: The Epac-based cAMP sensor “Epac-S^H189”, was obtained from Addgene (Plasmid #170348). This sensor consists of a mTurquoise fluorescent protein and a tdDark Venus protein linked via the Epac1 protein.
To construct the SNAP-tag®-Epac1-HaloTag® sensor, the sequence encoding the tdDark Venus domain in Epac-S^H189 was first replaced with the HaloTag® sequence using Nhe1 and Asc1 fragment ligation (NEB), creating a construct with mTurquoise and HaloTag® flanking the Epac1 domain (i.e, mTurquoise-Epac1-HaloTag®). […]
To evaluate this semisynthetic system in cells, U2OS cells (ATCC) were maintained in DMEM (Corning) containing 10% v/v FBS (ATCC), 1% v/v L-glutamine (Gibco) and 1% v/v Pen/Strep (Gibco). […] Fluorescence lifetime imaging was performed with a Leica SP8 Falcon using LASX software for image acquisition and analysis. […] Fluorescence emission was collected by the HyD detector. […] Mean amplitude weighted lifetime image (τmean) was calculated by fixing the two lifetimes and performing an image fit for their respective amplitudes (a1 and a2). FRET efficiency was calculated using the mean lifetime obtained in absence (τmean,-forskolin) and (τmean,+forskolin) presence of forskolin as 1^−(τmean,-forskolin/τmean,+forskolin).

T1 sequence (P0A3G2 other isoform, or with tags, fused parts or gaps with the stated changes): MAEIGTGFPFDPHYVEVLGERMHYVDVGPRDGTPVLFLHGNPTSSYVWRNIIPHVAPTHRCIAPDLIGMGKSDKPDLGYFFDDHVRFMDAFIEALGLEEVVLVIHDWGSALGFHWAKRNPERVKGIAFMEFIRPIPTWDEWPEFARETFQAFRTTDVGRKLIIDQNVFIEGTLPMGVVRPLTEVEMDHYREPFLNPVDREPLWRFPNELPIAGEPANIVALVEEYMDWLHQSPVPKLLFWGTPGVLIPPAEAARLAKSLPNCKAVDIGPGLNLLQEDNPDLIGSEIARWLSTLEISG

**Q.** `C=C/C=C(C=C)/[N+](C)=C1\C=CC2=C(c3c(F)c(C(=O)NCCOCCOCCCCCCCl)c(F)c(F)c3C(=O)[O-])c3ccc(N(C)c4ccccc4)cc3C(C)(C)C2=C1` [65HTL, JQ645-HaloTag® ligand] was tested. Which “HaloTag® labeling in cells compared with 91HTL” value [1] did it give?
**A.** substantially faster

**Q.** What about the “HaloTag® labeling in vitro compared with 91HTL” value ([2]; absorbance vs. time upon addition to HaloTag® protein) of the same molecule?
**A.** substantially faster

**Q.** What about the “ε of HaloTag® conjugate” value ([2]; after incubation with HaloTag® protein) of the same molecule?
**A.** 110,000 M^−1 cm^−1

**Q.** And the “λabs used for HaloTag® labeling read-out” value ([2]; ligand in 10 mM HEPES, pH 7.3 with CHAPS, HaloTag® protein added)?
**A.** 645 nm

**Q.** What about the “increase in absorptivity on incubation with HaloTag® protein” value ([2]; ligand with 2 equiv HaloTag® protein, 10 mM HEPES, pH 7.3) of the same molecule?
**A.** 47 fold

**Q.** What about the “FRET quenching of the JFX612 donor” value [3] of the same molecule?
**A.** effective FRET quencher
